{
  "source": "patent US7727275B2",
  "about": "“Drug-delivery endovascular stent and method of forming the same” (Biosensors International Group, Ltd., priority 2002, dated 2010)",
  "system": "restenosis (neointimal formation) in severely injured coronary vessels",
  "assay": "Swine restenosis model, \"high injury\" experiment: QCA and morphometric analysis 28 days after stent implant",
  "format": "in vivo, out-bred juvenile swine",
  "description": "The studies are summarized in Example 4.\nBriefly, the studies compare the extent of restenosis at 28 days following stent implantation, in bare metal stents, polymer-coated stents, and polymer coated stents containing high or low concentrations of sirolimus (rapamycin) and everolimus.\nIt was reasoned that the most challenging treatment condition for the drug eluting stent is a severely injured vessel, as it is known that the degree of restenosis (neointimal formation) increases directly with extent of vessel injury. […]\nDrug-eluting stents using a metal wire-mesh scaffold of a corrugated ring design (i.e. S-Stent) and polymer coating were implanted in out-bred juvenile swine (alternately Yucatan Minipigs for implant studies lasting longer than 28 days), using different dosings of either the drug everolimus or the drug sirolimus. At time of implant, Quantitative Coronary Angiography (QCA) was performed to measure the diameter of the vessels both before and after stent implantation. […]\nA computerized imaging system Image Pro Plus 4.0 through an A.G. Heinze slide microscope for a PC-based system was used for histomorphometric measurements of: • 1. […] To quantify the degree of vascular injury, a score based on the amount and length of tear of the different wall structures was used. […]",
  "data": [
    {"molecule": "CO[C@H]1C[C@@H]2CC[C@@H](C)[C@@](O)(O2)C(=O)C(=O)N2CCCC[C@H]2C(=O)O[C@H]([C@H](C)C[C@@H]2CC[C@@H](OCCO)[C@H](OC)C2)CC(=O)[C@H](C)/C=C(\\C)[C@@H](O)[C@@H](OC)C(=O)[C@H](C)C[C@H](C)/C=C/C=C/C=C/1C", "note": "[everolimus, 40-0-(2-hydroxyl)ethyl-rapamycin]", "values": [
      {"measurement": "extent of restenosis / neointima formation (in words)", "result": "better than, or at least equivalent to the 180 microgram dosage of sirolimus"}
    ]}
  ]
}
